In ChEMBL document CHEMBL4507274 (2021):

How the values were obtained:
[1] = system: Tyrosine-protein kinase ABL1 (Homo sapiens), P00519 [T315I]; assay: Abl(T315I) (h) Upstate kinase activity assay; settings: Compound concentration 10.0 uM
[2] = target: Tyrosine-protein kinase receptor UFO (Homo sapiens) (UniProt P30530); assay: Axl (h) Upstate kinase activity assay; settings: Compound concentration 10.0 uM
[3] = target: Serine/threonine-protein kinase Chk2 (Homo sapiens) (UniProt O96017); assay: CHK2 (h) Upstate kinase activity assay; settings: Compound concentration 10.0 uM
[4] = target: Proto-oncogene tyrosine-protein kinase Src (Homo sapiens) (UniProt P12931); assay: cSRC (h) Upstate kinase activity assay; settings: Compound concentration 10.0 uM
[5] = target: Receptor tyrosine-protein kinase erbB-4 (Homo sapiens) (UniProt Q15303); assay: ErbB4 (h) Upstate kinase activity assay; settings: Compound concentration 10.0 uM
[6] = target: Mitogen-activated protein kinase 8 (Homo sapiens) (UniProt P45983); assay: JNK1alpha1 (h) Upstate kinase activity assay; settings: Compound concentration 10.0 uM
[7] = target: Mitogen-activated protein kinase 9 (Homo sapiens) (UniProt P45984); assay: JNK2alpha2 (h) Upstate kinase activity assay; settings: Compound concentration 10.0 uM
[8] = target: Mitogen-activated protein kinase 1 (Homo sapiens) (UniProt P28482); assay: MAPK1 (h) Upstate kinase activity assay; settings: Compound concentration 10.0 uM
[9] = target: Mitogen-activated protein kinase 1 (Homo sapiens) (UniProt P28482); assay: MAPK2 (h) Upstate kinase activity assay; settings: Compound concentration 10.0 uM
[10] = target: Hepatocyte growth factor receptor (Homo sapiens) (UniProt P08581); assay: Met (h) Upstate kinase activity assay; settings: Compound concentration 10.0 uM
[11] = target: Serine/threonine-protein kinase pim-1 (Homo sapiens) (UniProt P11309); assay: Pim-1 (h) Upstate kinase activity assay; settings: Compound concentration 10.0 uM
[12] = target: Phosphatidylinositol 4,5-bisphosphate 3-kinase catalytic subunit alpha isoform (Homo sapiens) (UniProt P42336); assay: PIK3 (h) Upstate kinase activity assay; settings: Compound concentration 10.0 uM
[13] = target: Proto-oncogene tyrosine-protein kinase ROS (Homo sapiens) (UniProt P08922); assay: Ros (h) Upstate kinase activity assay; settings: Compound concentration 10.0 uM
[14] = target: T1, Serine/threonine-protein kinase Sgk1 (Homo sapiens) (UniProt O00141); assay: SGK (h) Upstate kinase activity assay; settings: Compound concentration 10.0 uM
T1 sequence (whole entry): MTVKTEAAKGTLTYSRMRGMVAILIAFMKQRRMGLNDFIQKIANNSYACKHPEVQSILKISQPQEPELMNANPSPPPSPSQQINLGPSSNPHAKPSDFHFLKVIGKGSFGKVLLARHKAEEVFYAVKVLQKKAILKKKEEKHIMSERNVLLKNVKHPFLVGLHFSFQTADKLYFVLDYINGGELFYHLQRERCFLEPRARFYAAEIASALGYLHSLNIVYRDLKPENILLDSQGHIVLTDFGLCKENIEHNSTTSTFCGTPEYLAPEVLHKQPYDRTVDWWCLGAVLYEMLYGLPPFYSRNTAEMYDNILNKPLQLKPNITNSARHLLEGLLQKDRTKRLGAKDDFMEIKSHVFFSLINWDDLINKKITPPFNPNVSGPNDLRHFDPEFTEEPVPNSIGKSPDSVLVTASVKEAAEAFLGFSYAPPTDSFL

MCF7 = assay: Breast MCF-7 cell line MDS Pharma Services Proliferation Assay; type: functional, cell-based, Homo sapiens
A498 = assay: Kidney A-498 cell line MDS Pharma Services Proliferation Assay; type: functional, cell-based, Homo sapiens
HepG2 = assay: Liver HepG2 cell line MDS Pharma Services Proliferation Assay; type: functional, cell-based, Homo sapiens
A549 = assay: Lung A549 cell line MDS Pharma Services Proliferation Assay; type: functional, cell-based, Homo sapiens
[15] = Lymphoma1-1331-IJ- JAl cell line MDS Pharma Services Proliferation Assay; type: functional, cell-based, Homo sapiens
SK-MEL-5 = assay: Melanoma SK-MEL-5 cell line MDS Pharma Services Proliferation Assay; type: functional, cell-based, Homo sapiens
PC-3 = assay: Prostate PC-3 cell line MDS Pharma Services Proliferation Assay; type: functional, cell-based, Homo sapiens
A-431 = assay: Skin A431 cell line MDS Pharma Services Proliferation Assay; type: functional, cell-based, Homo sapiens
[16] = target: 5-hydroxytryptamine receptor 1A (Homo sapiens) (UniProt P08908); settings: Compound concentration 10.0 uM
[17] = system: Epidermal growth factor receptor (Homo sapiens), P00533 [UNDEFINED MUTATION]; settings: Compound concentration 100.0 nM
[18] = system: Epidermal growth factor receptor (Homo sapiens), P00533 [L861Q]; settings: Compound concentration 100.0 nM
[19] = target: Sodium-dependent noradrenaline transporter (Homo sapiens) (UniProt P23975); settings: Compound concentration 10.0 uM
[20] = target: Alpha-2C adrenergic receptor (Homo sapiens) (UniProt P18825); settings: Compound concentration 10.0 uM
[21] = target: Muscarinic acetylcholine receptor M4 (Homo sapiens) (UniProt P08173); settings: Compound concentration 10.0 uM
[22] = Homo sapiens, Lymphoma1-1331-IJ- JAl

Sequence of Mitogen-activated protein kinase 1 (Homo sapiens) (P28482 whole entry): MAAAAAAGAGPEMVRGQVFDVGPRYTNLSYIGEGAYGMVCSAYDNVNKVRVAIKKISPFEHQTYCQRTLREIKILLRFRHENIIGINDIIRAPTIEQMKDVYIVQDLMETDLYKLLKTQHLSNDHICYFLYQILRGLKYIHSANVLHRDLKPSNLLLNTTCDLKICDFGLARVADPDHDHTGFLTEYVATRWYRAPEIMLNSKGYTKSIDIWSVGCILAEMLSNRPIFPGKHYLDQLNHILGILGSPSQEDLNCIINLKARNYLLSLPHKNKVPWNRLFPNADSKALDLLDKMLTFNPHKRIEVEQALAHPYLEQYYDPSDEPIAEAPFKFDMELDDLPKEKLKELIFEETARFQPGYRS
Sequence of Hepatocyte growth factor receptor (Homo sapiens) (P08581 whole entry): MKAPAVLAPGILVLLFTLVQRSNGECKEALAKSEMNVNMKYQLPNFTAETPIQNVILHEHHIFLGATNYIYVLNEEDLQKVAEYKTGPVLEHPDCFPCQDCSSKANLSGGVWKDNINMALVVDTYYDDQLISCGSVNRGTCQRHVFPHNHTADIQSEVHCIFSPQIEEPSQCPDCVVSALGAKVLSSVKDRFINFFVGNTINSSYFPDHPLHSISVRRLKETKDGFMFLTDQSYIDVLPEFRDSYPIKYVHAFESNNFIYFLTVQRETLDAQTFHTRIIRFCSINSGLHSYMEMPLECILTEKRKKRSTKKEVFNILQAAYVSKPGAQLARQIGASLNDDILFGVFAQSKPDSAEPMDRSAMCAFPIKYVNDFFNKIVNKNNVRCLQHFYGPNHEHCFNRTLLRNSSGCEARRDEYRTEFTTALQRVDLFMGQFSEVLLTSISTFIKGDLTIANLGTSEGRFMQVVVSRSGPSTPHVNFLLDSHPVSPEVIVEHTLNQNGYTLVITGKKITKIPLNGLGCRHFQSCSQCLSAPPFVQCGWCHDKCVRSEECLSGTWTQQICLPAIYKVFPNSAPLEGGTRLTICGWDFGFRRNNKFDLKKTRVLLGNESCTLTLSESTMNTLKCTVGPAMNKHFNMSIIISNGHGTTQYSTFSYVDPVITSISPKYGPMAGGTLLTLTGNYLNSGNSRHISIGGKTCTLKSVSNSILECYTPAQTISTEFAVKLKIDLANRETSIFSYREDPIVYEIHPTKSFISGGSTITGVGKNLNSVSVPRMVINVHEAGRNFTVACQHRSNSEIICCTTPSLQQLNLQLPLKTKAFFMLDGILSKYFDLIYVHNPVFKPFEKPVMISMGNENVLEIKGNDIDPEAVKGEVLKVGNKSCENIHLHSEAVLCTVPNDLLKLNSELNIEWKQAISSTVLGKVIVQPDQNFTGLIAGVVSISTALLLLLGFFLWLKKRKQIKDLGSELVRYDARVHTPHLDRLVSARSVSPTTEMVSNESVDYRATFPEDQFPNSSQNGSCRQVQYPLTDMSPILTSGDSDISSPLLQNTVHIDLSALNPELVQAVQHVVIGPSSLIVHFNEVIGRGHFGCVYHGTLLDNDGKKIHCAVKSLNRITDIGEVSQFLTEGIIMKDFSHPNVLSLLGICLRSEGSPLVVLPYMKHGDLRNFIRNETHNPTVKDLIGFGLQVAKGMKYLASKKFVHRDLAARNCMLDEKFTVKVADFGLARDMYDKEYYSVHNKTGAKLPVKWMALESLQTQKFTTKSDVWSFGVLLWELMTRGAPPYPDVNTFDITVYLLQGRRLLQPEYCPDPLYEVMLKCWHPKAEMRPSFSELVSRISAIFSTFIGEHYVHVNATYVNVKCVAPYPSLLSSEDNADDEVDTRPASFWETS
Sequence of 5-hydroxytryptamine receptor 1A (Homo sapiens) (P08908 whole entry): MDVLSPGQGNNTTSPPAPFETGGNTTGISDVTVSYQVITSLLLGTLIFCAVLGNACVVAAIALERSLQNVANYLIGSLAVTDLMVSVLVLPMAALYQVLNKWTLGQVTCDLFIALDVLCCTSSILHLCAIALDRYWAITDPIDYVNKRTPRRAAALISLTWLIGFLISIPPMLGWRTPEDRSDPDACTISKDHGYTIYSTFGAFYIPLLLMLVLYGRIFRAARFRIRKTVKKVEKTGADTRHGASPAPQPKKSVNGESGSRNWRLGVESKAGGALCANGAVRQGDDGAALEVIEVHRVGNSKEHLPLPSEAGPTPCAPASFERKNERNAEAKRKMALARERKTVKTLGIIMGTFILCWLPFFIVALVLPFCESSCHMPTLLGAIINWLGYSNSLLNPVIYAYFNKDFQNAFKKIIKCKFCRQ
Sequence of Serine/threonine-protein kinase Chk2 (Homo sapiens) (O96017 whole entry): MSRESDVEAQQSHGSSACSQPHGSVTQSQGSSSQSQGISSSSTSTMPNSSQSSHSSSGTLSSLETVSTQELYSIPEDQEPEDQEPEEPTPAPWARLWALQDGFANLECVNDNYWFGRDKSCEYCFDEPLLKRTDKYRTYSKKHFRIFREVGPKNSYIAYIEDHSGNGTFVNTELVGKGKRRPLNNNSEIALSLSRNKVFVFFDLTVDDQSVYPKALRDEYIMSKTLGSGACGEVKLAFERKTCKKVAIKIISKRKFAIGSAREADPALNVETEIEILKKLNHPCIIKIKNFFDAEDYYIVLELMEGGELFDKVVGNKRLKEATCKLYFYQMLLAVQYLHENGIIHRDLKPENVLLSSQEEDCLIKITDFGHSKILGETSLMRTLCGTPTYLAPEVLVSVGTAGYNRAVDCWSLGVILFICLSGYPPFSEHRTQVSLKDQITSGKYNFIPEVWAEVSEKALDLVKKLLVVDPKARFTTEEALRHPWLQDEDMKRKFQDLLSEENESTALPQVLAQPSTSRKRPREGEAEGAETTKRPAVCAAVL
Sequence of Mitogen-activated protein kinase 9 (Homo sapiens) (P45984 whole entry, looked up): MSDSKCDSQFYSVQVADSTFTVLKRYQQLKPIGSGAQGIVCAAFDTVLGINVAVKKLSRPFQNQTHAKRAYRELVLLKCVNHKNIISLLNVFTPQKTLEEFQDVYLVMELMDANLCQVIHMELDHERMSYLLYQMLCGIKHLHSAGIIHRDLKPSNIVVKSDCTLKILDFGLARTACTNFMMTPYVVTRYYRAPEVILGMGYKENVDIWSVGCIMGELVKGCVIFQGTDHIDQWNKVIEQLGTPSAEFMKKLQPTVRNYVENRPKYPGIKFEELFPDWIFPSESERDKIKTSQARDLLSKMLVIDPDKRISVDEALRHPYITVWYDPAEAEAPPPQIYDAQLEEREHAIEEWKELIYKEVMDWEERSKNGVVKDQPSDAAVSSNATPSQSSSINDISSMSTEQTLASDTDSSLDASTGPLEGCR
Sequence of Mitogen-activated protein kinase 8 (Homo sapiens) (P45983 whole entry): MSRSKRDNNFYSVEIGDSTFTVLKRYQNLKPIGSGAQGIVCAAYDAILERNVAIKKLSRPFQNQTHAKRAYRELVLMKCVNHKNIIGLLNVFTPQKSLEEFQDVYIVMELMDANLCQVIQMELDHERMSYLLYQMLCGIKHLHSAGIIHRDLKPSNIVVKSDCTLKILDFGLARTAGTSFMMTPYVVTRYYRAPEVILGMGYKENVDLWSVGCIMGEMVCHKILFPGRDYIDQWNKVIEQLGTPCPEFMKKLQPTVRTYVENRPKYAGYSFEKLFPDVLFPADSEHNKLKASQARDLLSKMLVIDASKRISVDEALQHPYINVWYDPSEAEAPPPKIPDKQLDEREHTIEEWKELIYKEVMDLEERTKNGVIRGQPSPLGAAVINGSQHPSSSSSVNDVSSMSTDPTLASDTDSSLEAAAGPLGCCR
Sequence of Serine/threonine-protein kinase pim-1 (Homo sapiens) (P11309 whole entry, looked up, canonical isoform): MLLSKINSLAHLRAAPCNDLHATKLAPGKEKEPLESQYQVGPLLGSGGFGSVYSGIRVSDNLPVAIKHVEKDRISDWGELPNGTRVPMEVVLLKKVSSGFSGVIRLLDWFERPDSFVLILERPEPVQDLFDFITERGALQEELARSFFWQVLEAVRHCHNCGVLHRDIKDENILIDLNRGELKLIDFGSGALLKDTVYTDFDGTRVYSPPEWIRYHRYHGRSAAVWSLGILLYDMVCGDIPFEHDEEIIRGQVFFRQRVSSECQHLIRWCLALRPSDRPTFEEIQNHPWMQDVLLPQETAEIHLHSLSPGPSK
Sequence of Sodium-dependent noradrenaline transporter (Homo sapiens) (P23975 whole entry): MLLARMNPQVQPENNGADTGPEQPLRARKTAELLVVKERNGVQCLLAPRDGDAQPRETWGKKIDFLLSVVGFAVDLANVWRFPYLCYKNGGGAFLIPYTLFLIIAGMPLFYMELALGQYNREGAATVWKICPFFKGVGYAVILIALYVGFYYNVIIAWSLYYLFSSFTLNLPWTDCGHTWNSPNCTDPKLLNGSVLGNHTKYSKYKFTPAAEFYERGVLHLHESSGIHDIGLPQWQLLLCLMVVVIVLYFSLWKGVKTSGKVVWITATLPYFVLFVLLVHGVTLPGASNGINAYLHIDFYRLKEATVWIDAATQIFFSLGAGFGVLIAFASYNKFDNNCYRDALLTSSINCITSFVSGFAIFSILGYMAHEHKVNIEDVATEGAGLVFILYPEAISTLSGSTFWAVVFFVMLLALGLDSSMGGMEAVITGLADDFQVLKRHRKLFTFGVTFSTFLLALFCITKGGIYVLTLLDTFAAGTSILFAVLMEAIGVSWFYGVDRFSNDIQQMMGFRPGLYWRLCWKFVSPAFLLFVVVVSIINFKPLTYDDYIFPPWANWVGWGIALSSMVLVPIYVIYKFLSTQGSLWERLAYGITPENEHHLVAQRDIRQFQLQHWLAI
Sequence of Muscarinic acetylcholine receptor M4 (Homo sapiens) (P08173 whole entry): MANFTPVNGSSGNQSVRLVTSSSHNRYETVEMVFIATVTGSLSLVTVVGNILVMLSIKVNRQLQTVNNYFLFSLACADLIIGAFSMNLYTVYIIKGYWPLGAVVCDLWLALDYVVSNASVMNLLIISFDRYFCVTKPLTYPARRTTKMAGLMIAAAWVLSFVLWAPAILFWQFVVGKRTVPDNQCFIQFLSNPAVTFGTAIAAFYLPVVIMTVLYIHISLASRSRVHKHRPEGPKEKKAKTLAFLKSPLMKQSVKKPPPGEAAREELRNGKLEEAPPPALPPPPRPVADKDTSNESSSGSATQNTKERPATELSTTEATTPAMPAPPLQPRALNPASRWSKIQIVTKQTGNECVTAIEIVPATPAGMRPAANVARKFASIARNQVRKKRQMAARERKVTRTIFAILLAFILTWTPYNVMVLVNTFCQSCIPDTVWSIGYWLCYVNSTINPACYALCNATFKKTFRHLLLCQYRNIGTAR

SMILES: Cc1c[nH]c2nccc(Oc3c(F)cc(Nc4cc(Cl)nc(N)n4)cc3F)c12 [BAY-549]
- inhibition [1]: 28%
- inhibition [2]: 85%
- inhibition [3]: 64%
- inhibition [4]: -4%
- inhibition [5]: 5%
- inhibition [6]: 22%
- inhibition [7]: 16%
- inhibition [8]: 1%
- inhibition [9]: 17%
- inhibition [10]: 82%
- inhibition [11]: 20%
- inhibition [12]: -3%
- inhibition [13]: 10%
- inhibition [14]: 76%
- TGI (MCF7; Homo sapiens, MCF7): > 100 µM
- CC50 (MCF7; Homo sapiens, MCF7, read-out: LC50 (the source's name)): > 100 µM
- Mean % growth (n = 2) for 1.0 µM probe concentration (MCF7; ± SEM 1 % growth): 87%
- Mean % growth (n = 2) for 10.0 µM probe concentration (MCF7; ± SEM 2 % growth): 57%
- Mean % growth (n = 2) for 0.01 µM probe concentration (MCF7; ± SEM 3 % growth): 92%
- Mean % growth (n = 2) for 100.0 µM probe concentration (MCF7; ± SEM 4 % growth): 6%
- Mean % growth (n = 2) for 0.1 µM probe concentration (MCF7; ± SEM 9 % growth): 89%
- IC50 (A498; Homo sapiens, A498): 7.8 µM
- TGI (A498; Homo sapiens, A498): 70 µM
- CC50 (A498; Homo sapiens, A498, read-out: LC50 (the source's name)): > 100 µM
- Mean % growth (n = 2) for 0.01 µM probe concentration (A498; ± SEM 2 % growth): 99%
- Mean % growth (n = 2) for 10.0 µM probe concentration (A498; ± SEM 2 % growth): 26%
- Mean % growth (n = 2) for 100.0 µM probe concentration (A498; ± SEM 2 % growth): -1%
- Mean % growth (n = 2) for 0.1 µM probe concentration (A498; ± SEM 5 % growth): 93%
- Mean % growth (n = 2) for 1.0 µM probe concentration (A498; ± SEM 5 % growth): 98%
- IC50 (HepG2; Homo sapiens, HepG2): 3.1 µM
- TGI (HepG2; Homo sapiens, HepG2): 54 µM
- CC50 (HepG2; Homo sapiens, HepG2, read-out: LC50 (the source's name)): > 100 µM
- Mean % growth (n = 2) for 1.0 µM probe concentration (HepG2; ± SEM 2 % growth): 62%
- Mean % growth (n = 2) for 0.01 µM probe concentration (HepG2; ± SEM 4 % growth): 101%
- Mean % growth (n = 2) for 10.0 µM probe concentration (HepG2; ± SEM 4 % growth): 18%
- Mean % growth (n = 2) for 0.1 µM probe concentration (HepG2; ± SEM 6 % growth): 95%
- Mean % growth (n = 2) for 100.0 µM probe concentration (HepG2; ± SEM 6 % growth): -3%
- IC50 (A549; Homo sapiens, A549): 1.5 µM
- TGI (A549; Homo sapiens, A549): 25 µM
- CC50 (A549; Homo sapiens, A549, read-out: LC50 (the source's name)): > 100 µM
- Mean % growth (n = 2) for 1.0 µM probe concentration (A549; ± SEM 2 % growth): 42%
- Mean % growth (n = 2) for 10.0 µM probe concentration (A549; ± SEM 2 % growth): 7%
- Mean % growth (n = 2) for 100.0 µM probe concentration (A549; ± SEM 3 % growth): -15%
- Mean % growth (n = 2) for 0.01 µM probe concentration (A549; ± SEM 4 % growth): 103%
- Mean % growth (n = 2) for 0.1 µM probe concentration (A549; ± SEM 4 % growth): 97%
- IC50 [15, 22]: > 100 µM
- TGI [15, 22]: > 100 µM
- CC50 ([15]; Homo sapiens, Lymphoma1-1331-IJ- JAl, read-out: LC50 (the source's name)): > 100 µM
- Mean % growth (n = 2) for 10.0 µM probe concentration ([15]; ± SEM 1 % growth): 98%
- Mean % growth (n = 2) for 0.1 µM probe concentration ([15]; ± SEM 5 % growth): 103%
- Mean % growth (n = 2) for 1.0 µM probe concentration ([15]; ± SEM 6 % growth): 97%
- Mean % growth (n = 2) for 100.0 µM probe concentration ([15]; ± SEM 7 % growth): 80%
- Mean % growth (n = 2) for 0.01 µM probe concentration ([15]; ± SEM 8 % growth): 96%
- IC50 (SK-MEL-5; Homo sapiens, SK-MEL-5): 16 µM
- TGI (SK-MEL-5; Homo sapiens, SK-MEL-5): 50 µM
- CC50 (SK-MEL-5; Homo sapiens, SK-MEL-5, read-out: LC50 (the source's name)): > 100 µM
- Mean % growth (n = 2) for 100.0 µM probe concentration (SK-MEL-5; ± SEM 1 % growth): -32%
- Mean % growth (n = 2) for 0.01 µM probe concentration (SK-MEL-5; ± SEM 3 % growth): 106%
- Mean % growth (n = 2) for 1.0 µM probe concentration (SK-MEL-5; ± SEM 3 % growth): 98%
- Mean % growth (n = 2) for 10.0 µM probe concentration (SK-MEL-5; ± SEM 6 % growth): 65%
- Mean % growth (n = 2) for 0.1 µM probe concentration (SK-MEL-5; ± SEM 8 % growth): 89%
- IC50 (PC-3; Homo sapiens, PC-3): 9.4 µM
- TGI (PC-3; Homo sapiens, PC-3): > 100 µM
- CC50 (PC-3; Homo sapiens, PC-3, read-out: LC50 (the source's name)): > 100 µM
- Mean % growth (n = 2) for 10.0 µM probe concentration (PC-3; ± SEM 1 % growth): 48%
- Mean % growth (n = 2) for 0.01 µM probe concentration (PC-3; ± SEM 2 % growth): 97%
- Mean % growth (n = 2) for 1.0 µM probe concentration (PC-3; ± SEM 3 % growth): 58%
- Mean % growth (n = 2) for 100.0 µM probe concentration (PC-3; ± SEM 3 % growth): 29%
- Mean % growth (n = 2) for 0.1 µM probe concentration (PC-3; ± SEM 5 % growth): 102%
- IC50 (A-431; Homo sapiens, A-431): 5.5 µM
- TGI (A-431; Homo sapiens, A-431): 31 µM
- CC50 (A-431; Homo sapiens, A-431, read-out: LC50 (the source's name)): > 100 µM
- Mean % growth (n = 2) for 1.0 µM probe concentration (A-431; ± SEM 3 % growth): 77%
- Mean % growth (n = 2) for 10.0 µM probe concentration (A-431; ± SEM 3 % growth): 35%
- Mean % growth (n = 2) for 100.0 µM probe concentration (A-431; ± SEM 5 % growth): -36%
- Mean % growth (n = 2) for 0.1 µM probe concentration (A-431; ± SEM 6 % growth): 103%
- Mean % growth (n = 2) for 0.01 µM probe concentration (A-431; ± SEM 9 % growth): 92%
- inhibition [16]: 11.7%

SMILES: Cn1cc(Cl)c2c(Oc3c(F)cc(Nc4cc(Cl)nc(N)n4)cc3F)ccnc21 [BAY-4900]
- residual activity [17]: 77%
- residual activity [18]: 100%
- inhibition [19]: 3.14%
- inhibition [20]: -6.8%
- inhibition [21]: -3.76%
